Laboratory results published in patent publication US8815565B2, “Method for culturing mycoplasma contamination-free cells and method for removing mycoplasma contamination of cells” (Cellsafe Co., Ltd., priority 2010, dated 2014).

Test system: cells contaminated with mycoplasma
Experiment: Mycoplasma removal potential when amphidinol derivative was used, by filter pore size
Assay type: cell-based
Procedure: A medium was removed from the cell culture (80 to 90% confluent) which was cultured in the T-75 culture flask in (1) of Example 3 and which was confirmed as being contaminated with mycoplasma. The obtained cells were washed twice with 10 ml of a phosphate buffer solution. 2 ml of trypsin-EDTA was added thereto, followed by incubating at a temperature of 37° C. for 10 minutes to detach cells. Then, DMEM (GIBCO BRL, Cat. No. 12800-058) was added thereto to obtain 10 ml of cell suspension, which was then transferred to a 15 ml conical tube. The cell suspension in the conical tube was centrifuged at a rate of 1,500 rpm for 5 minutes, and then the supernatant was removed therefrom. 10 ml of 5% FBS-containing DMEM (GIBCO BRL, Cat. No. 12800-058) was added to the conical tube to obtain a cell suspension. The obtained cell suspension was divided into two groups each having an amount of 5 ml. […] The cell suspensions of the group 1 and 2 were diluted with 5% FBS-including DMEM (GIBCO BRL, Cat. No. 12800-058) to adjust the cell concentration to about 2.5×10^5 cells/ml, respectively. 4 ml of each cell suspension of the group 1 and 2 (each having about 2.5×10^5 cells/ml of cells) was transferred to a 15 ml tube, and then […] of 5% FBS-containing DMEM (GIBCO BRL, Cat. No. 12800-058) was added thereto. […] 10 ml of each of the obtained mixtures was transferred to a T-75 culture flask, followed by culturing for 3 days in a CO2 incubator for 3 days (passage 1 sub-culturing).
The medium was removed from the cell culture (80 to 90% confluent) which was cultured in the T-75 culture flask for 3 days. The obtained cells were washed twice with 10 ml of a phosphate buffer solution. 2 ml of trypsin-EDTA was added thereto, followed by incubating at a temperature of 37° C. for 10 minutes to detach the cells. Then, DMEM (GIBCO BRL, Cat. No. 12800-058) was added thereto to obtain 10 ml of cell suspension, which was then transferred to a 15 ml conical tube. The cell suspension in the conical tube was centrifuged at a rate of 1,500 rpm for 5 minutes, and then the supernatant was removed therefrom. 10 ml of 10% FBS-containing DMEM (GIBCO BRL, Cat. No. 12800-058) was added to the conical tube to obtain a cell suspension. The obtained cell suspension was divided into two groups each having an amount of 5 ml. […] The cell suspensions of the group 1 and 2 were diluted with 10% FBS-including DMEM (GIBCO BRL, Cat. No. 12800-058) to adjust the cell concentration to about 2.5×10^5 cells/ml, respectively. 4 ml of each cell suspension of the group 1 and 2 (each having about 2.5×10^5 cells/ml of cells) was transferred to a 15 ml tube, and then 5.5 ml of 10% FBS-containing DMEM (GIBCO BRL, Cat. No. 12800-058) was added thereto. […] 10 ml of each of the obtained mixtures was transferred to a T-75 culture flask, followed by culturing […] (passage 2 sub-culturing). The sub-culturing was performed twice more, and thus, passage 4 sub-culturing steps in total were performed.
Mycoplasma contamination was measured regarding the respective cells of the additional passages 1, 3, 6, 10, 12, 15, and 33 after the initial passage 4 treatments. Whether mycoplasma was removed was measured with a mycoplasma diagnosis kit (Promokine, Germany; Cellsafe Co., Ltd., Korea) according to the enclosed protocol. The resulting PCR products were electrophoresed on a 1% agarose gel to measure the mycoplasma contamination.
Sub-culturing was performed in the same manner as in (1), except that 2 μg/ml of the compound of Formula 3 was used as a reagent for removing mycoplasma , and the filters (Millipore) having pore sizes of 11, 20, 30, 60, 80, 90, and 100 μm and the filters (Falcon) having pore sizes of 40, 50, and 70 μm were used, and then, the mycoplasma contamination was measured.

Measured: mycoplasma contamination

C=C/C=C/CC/C=C/C=C/C=C/CC/C=C/C(O)C(O)C1OC(C(O)C(O)C(=C)CCC(O)C2CC(O)C(O)C(C(O)C(O)/C=C(\C)CCC(O)CC(O)C(O)C(C)CC(O)C(O)CCCCCC(O)CCCC(O)/C=C/CC(O)/C=C/CC(O)CO)O2)CC(O)C1O (centres unmarked) [AM3, amphidinol 3]
completely removed: filter having a pore size of 10 to 100 μM
−: 2 μg/ml, Pore size 11 μm, Passage 1 after treatment | 2 μg/ml, Pore size 11 μm, Passage 3 after treatment | 2 μg/ml, Pore size 11 μm, Passage 6 after treatment | 2 μg/ml, Pore size 11 μm, Passage 10 after treatment | 2 μg/ml, Pore size 11 μm, Passage 12 after treatment | 2 μg/ml, Pore size 11 μm, Passage 15 after treatment | 2 μg/ml, Pore size 11 μm, Passage 33 after treatment | 2 μg/ml, Pore size 20 μm, Passage 1 after treatment | 2 μg/ml, Pore size 20 μm, Passage 3 after treatment | 2 μg/ml, Pore size 20 μm, Passage 6 after treatment | 2 μg/ml, Pore size 20 μm, Passage 10 after treatment | 2 μg/ml, Pore size 20 μm, Passage 12 after treatment | 2 μg/ml, Pore size 20 μm, Passage 15 after treatment | 2 μg/ml, Pore size 20 μm, Passage 33 after treatment | 2 μg/ml, Pore size 30 μm, Passage 1 after treatment | 2 μg/ml, Pore size 30 μm, Passage 3 after treatment | 2 μg/ml, Pore size 30 μm, Passage 6 after treatment | 2 μg/ml, Pore size 30 μm, Passage 10 after treatment | 2 μg/ml, Pore size 30 μm, Passage 12 after treatment | 2 μg/ml, Pore size 30 μm, Passage 15 after treatment | 2 μg/ml, Pore size 30 μm, Passage 33 after treatment | 2 μg/ml, Pore size 40 μm, Passage 1 after treatment | 2 μg/ml, Pore size 40 μm, Passage 3 after treatment | 2 μg/ml, Pore size 40 μm, Passage 6 after treatment | 2 μg/ml, Pore size 40 μm, Passage 10 after treatment | 2 μg/ml, Pore size 40 μm, Passage 12 after treatment | 2 μg/ml, Pore size 40 μm, Passage 15 after treatment | 2 μg/ml, Pore size 40 μm, Passage 33 after treatment | 2 μg/ml, Pore size 50 μm, Passage 1 after treatment | 2 μg/ml, Pore size 50 μm, Passage 3 after treatment | 2 μg/ml, Pore size 50 μm, Passage 6 after treatment | 2 μg/ml, Pore size 50 μm, Passage 10 after treatment | 2 μg/ml, Pore size 50 μm, Passage 12 after treatment | 2 μg/ml, Pore size 50 μm, Passage 15 after treatment | 2 μg/ml, Pore size 50 μm, Passage 33 after treatment | 2 μg/ml, Pore size 60 μm, Passage 1 after treatment | 2 μg/ml, Pore size 60 μm, Passage 3 after treatment | 2 μg/ml, Pore size 60 μm, Passage 6 after treatment | 2 μg/ml, Pore size 60 μm, Passage 10 after treatment | 2 μg/ml, Pore size 60 μm, Passage 12 after treatment | 2 μg/ml, Pore size 60 μm, Passage 15 after treatment | 2 μg/ml, Pore size 60 μm, Passage 33 after treatment | 2 μg/ml, Pore size 70 μm, Passage 1 after treatment | 2 μg/ml, Pore size 70 μm, Passage 3 after treatment | 2 μg/ml, Pore size 70 μm, Passage 6 after treatment | 2 μg/ml, Pore size 70 μm, Passage 10 after treatment | 2 μg/ml, Pore size 70 μm, Passage 12 after treatment | 2 μg/ml, Pore size 70 μm, Passage 15 after treatment | 2 μg/ml, Pore size 70 μm, Passage 33 after treatment | 2 μg/ml, Pore size 80 μm, Passage 1 after treatment | 2 μg/ml, Pore size 80 μm, Passage 3 after treatment | 2 μg/ml, Pore size 80 μm, Passage 6 after treatment | 2 μg/ml, Pore size 80 μm, Passage 10 after treatment | 2 μg/ml, Pore size 80 μm, Passage 12 after treatment | 2 μg/ml, Pore size 80 μm, Passage 15 after treatment | 2 μg/ml, Pore size 80 μm, Passage 33 after treatment | 2 μg/ml, Pore size 90 μm, Passage 1 after treatment | 2 μg/ml, Pore size 90 μm, Passage 3 after treatment | 2 μg/ml, Pore size 90 μm, Passage 6 after treatment | 2 μg/ml, Pore size 90 μm, Passage 10 after treatment | 2 μg/ml, Pore size 90 μm, Passage 12 after treatment | 2 μg/ml, Pore size 90 μm, Passage 15 after treatment | 2 μg/ml, Pore size 90 μm, Passage 33 after treatment | 2 μg/ml, Pore size 100 μm, Passage 1 after treatment | 2 μg/ml, Pore size 100 μm, Passage 3 after treatment | 2 μg/ml, Pore size 100 μm, Passage 6 after treatment | 2 μg/ml, Pore size 100 μm, Passage 10 after treatment | 2 μg/ml, Pore size 100 μm, Passage 12 after treatment | 2 μg/ml, Pore size 100 μm, Passage 15 after treatment | 2 μg/ml, Pore size 100 μm, Passage 33 after treatment
